Measurements published in US20250057958A1, “CYTOTOXICITY TARGETING CHIMERAS FOR CCR2-EXPRESSING CELLS” (GLAXOSMITHKLINE INTELLECTUAL PROPERTY DEVELOPMENT LIMITED, priority 2022, published 2025).

Columns and labels:
[1] = tested on: CCR2 expressing cells (CD11b+Ly6c+Hi monocytes); test: In vivo depletion assay (flow cytometry of peripheral blood); design: species or system human CCR2 (hCCR2) knock-in mice; conditions: IV bolus 0.1 mpk compound + 10 mpk anti-cotinine antibody (mouse IgG2a Fc), 48 hours
Procedure: (§1) Human CCR2 (hCCR2) knock-in mice (C57 background) were dosed intravenously with a PBS solution containing a compound of Formula (I) to measure depletion of CCR2 expressing cells in peripheral blood. Peripheral blood from IV dosed mice was also analyzed to determine PK properties of the compounds of Formula (I).
Formulations preparation: On the day of experiment, the stock solution of the compound of Formula (I) was removed from storage at −20° C. and thawed at room temperature. Anti-cotinine antibody having a heavy chain sequence of SEQ ID NO: 13 and a light chain sequence of SEQ ID NO: 14 (rabbit variable region sequence with mouse IgG2a Fc domain), if required was removed from storage at −80° C. and thawed at room temperature. Antibody vials were immediately transferred into wet ice after thawing. Compounds of Formula (I) were further diluted in DMSO as per experimental requirements.
Formulation composition: The formulation composition was Saline: DMSO: PBS. Saline was added based on the quantity required and then stock solution of the compound of Formula (1) prepared in DMSO, followed by addition of antibody in PBS. Formulations were incubated at room temperature for 30 minutes before administration to the mouse. DMSO was used at 1 to 2% (v/v) in the final formulation.
(§2) Administration to Animal: Solution formulation of antibody and compound of Formula (I) was injected (bolus injection) to the restrained mouse in the right/left lateral tail vein. Animals were dosed with 0.1 milligram per kilogram (mpk) of the compound of Formula (I) and 10 mpk of the anti-cotinine antibody.
(§3) Terminal bleeding at end of experiment (48 hr): Approximately 250 μL of blood in K2EDTA tube and approximately 250 μL of blood in SST (serum separation tube) was collected from each mouse through retro-orbital bleeding under deep isoflurane anesthesia. After bleeding, each mouse was sacrificed by cervical dislocation. The blood distribution at termination was determined as follows: • For PK: 50 μL of K2EDTA blood was transferred to another tube for PK • Flow cytometry: Remaining blood (˜200 μL) was used for flow cytometry analysis. • For serum collection: serum separator tubes (BD) were centrifuged at 4° C., 5000 rpm for 15 minutes. Approximately 100 μL serum was separated and stored at −80° C. for further usage. • Blood drug concentration: Samples collected at the various timepoints (0.25 hr, 2 hr, 24 and 48 hr) were analyzed to determine blood drug concentration.
Flow cytometry analysis: CCR2 depletion in peripheral blood was determined by flow cytometry. Briefly, peripheral blood was collected from all animals at the end of study termination and processed. […]
Percent depletion of CD11b+Ly6c+Hi cells and CCR2 expression for the different treatment groups was determined. […]

[2] = Blood drug concentration analysis (PK) in the in vivo depletion assay; design: species or system human CCR2 (hCCR2) knock-in mice; conditions: human CCR2 (hCCR2) knock-in, C57 background, mouse, whole blood, LC-MS/MS, IV bolus 0.1 mpk compound + 10 mpk anti-cotinine antibody, 48 hours post-dose, read-out: Exposure of Compound of Formula (I) 48 hours post-dose
Procedure: as §1, §2
Collection of Blood for PK: Blood was collected at time points 0.25 hour, 2 hours, and […] following administration (50 μL/time point) through retro-orbital bleeding under mild isoflurane anesthesia.
as §3
Blood drug concentration analysis: Drug concentration in blood samples was determined by an LC-MS/MS-based bioanalytical method developed at Syngene. Samples were analyzed on Q-Trap, API-5500 LC-MS/MS system coupled with Exion UHPLC system from SCIEX, USA operated in multiple reaction monitoring mode employing electrospray ionization technique in positive polarity. Analyte and internal standard peaks were resolved on Synergi Polar, 75×2.0 mm, 4 μcolumn using mobile phase 10 mM Ammonium acetate in Milli-Q water as phase A and 0.1% Formic acid in acetonitrile as Phase B. Gradient elution was performed with initial composition 95% Phase A at 0.0 min, holding it for 0.2 minutes, ramping to 5% by 1.0 minute, keeping the same for next 0.5 minutes and coming back to 95% by 1.6 minutes. The total run time was 2 minutes.
Working dilutions for calibration curve and quality control standards were prepared by serially diluting 20 mg/mL stock solution with DMSO. Spiked concentrations for calibration curve in the whole blood ranged from 1 ng/mL to 1000 ng/mL. […]

Compound | % Depletion of CCR2 expressing cells [1] | concentration at 48 h [2]
CC(=O)N[C@@H]1C[C@H](NC(C)(C)C)CC[C@@H]1N1CC[C@H](Nc2nc(CCCCNC(=O)[C@H]3CC[C@H](NC(=O)CCCO[C@H]4CC[C@H](OCCNC(=O)[C@H]5CC(=O)N(C)[C@@H]5c5cccnc5)CC4)CC3)nc3ccc(C(F)(F)F)cc23)C1=O [Example 3, (2S,3S)-N-(2-(((1R,4S)-4-(4-(((1S,4R)-4-((4-(4-(((S)-1-((1S,2R,4R)-2-Acetamido-4-(tert-butylamino)cyclohexyl)-2-oxopyrrolidin-3-yl)amino)-6-(trifluoromethyl)quinazolin-2-yl)butyl)carbamoyl)cyclohexyl)amino)-4-oxobutoxy)cyclohexyl)oxy)ethyl)-1-methyl-5-oxo-2-(pyridin-3-yl)pyrrolidine-3-carboxamide] | 84% | 37.1 ng/mL
CC(=O)N[C@@H]1C[C@H](NC(C)(C)C)CC[C@@H]1N1CC[C@H](Nc2nc([C@H]3CC[C@@H](NC(=O)[C@H]4CC[C@H](NC(=O)CCCO[C@H]5CC[C@H](OCCNC(=O)[C@H]6CC(=O)N(C)[C@@H]6c6cccnc6)CC5)CC4)CC3)nc3ccc(C(F)(F)F)cc23)C1=O [Example 10, (2S,3S)-N-(2-(((1R,4S)-4-(4-(((1R,4R)-4-(((1R,4S)-4-(4-(((S)-1-((1S,2R,4R)-2-Acetamido-4-(tert-butylamino)cyclohexyl)-2-oxopyrrolidin-3-yl)amino)-6-(trifluoromethyl)quinazolin-2-yl)cyclohexyl)carbamoyl)cyclohexyl)amino)-4-oxobutoxy)cyclohexyl)oxy)ethyl)-1-methyl-5-oxo-2-(pyridin-3-yl)pyrrolidine-3-carboxamide] | 89.71% | 35.5 ng/mL
CC(=O)N[C@@H]1C[C@H](NC(C)(C)C)CC[C@@H]1N1CC[C@H](Nc2nc([C@H]3CC[C@H](NC(=O)[C@H]4CC[C@H](NC(=O)CCCO[C@H]5CC[C@H](OCCNC(=O)[C@H]6CC(=O)N(C)[C@@H]6c6cccnc6)CC5)CC4)CC3)nc3ccc(C(F)(F)F)cc23)C1=O [Example 11, (2S,3S)-N-(2-(((1R,4S)-4-(4-(((1S,4R)-4-(((1S,4R)-4-(4-(((S)-1-((1S,2R,4R)-2-Acetamido-4-(tert-butylamino)cyclohexyl)-2-oxopyrrolidin-3-yl)amino)-6-(trifluoromethyl)quinazolin-2-yl)cyclohexyl)carbamoyl)cyclohexyl)amino)-4-oxobutoxy)cyclohexyl)oxy)ethyl)-1-methyl-5-oxo-2-(pyridin-3-yl)pyrrolidine-3-carboxamide] | 95.41% | 93.4 ng/mL
